# What was measured:
# [1] = Particle size distribution measurement by laser diffraction; type: physicochemical; details: milled active substance
# Text: The value X90 refers to the 90% value of the volume distribution measured using a laser diffractometer. In other words, for the purposes of the present invention, the X90 value denotes the particle size below which 90% of the quantity of particles is found based on the volume distribution. Analogously the value X50 refers to the 50% value (median) of the volume distribution measured using a laser diffractometer. In other words, for the purposes of the present invention, the X50 value denotes the particle size below which 50% of the quantity of particles is found based on the volume distribution. Analogously the value X10 refers to the 10% value of the volume distribution measured using a laser diffractometer. In other words, for the purposes of the present invention, the X10 value denotes the particle size below which 10% of the quantity of particles is found based on the volume distribution.
# Preferably all X90, X50, X10 values hereinbefore and hereinafter are by volume and determined by laser-diffraction method, in particular low angle laser light scattering, i.e. Fraunhofer diffraction. A preferred test is described in the experimental section. The laser diffraction method is sensitive to the volume of a particle and provides a volume-average particle size, which is equivalent to the weight-average particle size if the density is constant. The skilled artesian knows that the results of the particle size distribution determination by one technique can be correlated with that from another technique, for example on an empirical basis by routine experimentation. Alternatively the particle size distribution in the pharmaceutical composition or dosage form can be determined by microscopy, in particular electron microscopy or scanning electron microscopy.
# Examples of typical particle size distribution values X90, X50 and X10 for the preferred active pharmaceutical ingredient according to the invention are shown in the table below.
# 3. Particle Size Distribution Measurement by Laser Diffraction
# Particle size distribution measurement is performed for example via light scattering or laser diffraction technique. To determine the particle size the powder is fed into a laser diffraction spectrometer for example by means of a dispersing unit. The test method is described below in detail:
# Equipment: Laser Diffraction Spectrometer Sympatec HELOS Particle Sizer.
# Lens: R31 (0.5/0.9 μm-175 μm) Sample Dispersing Unit: Dry disperser RODOS/M
# Feed Velocity: 60.00 mm/s Primary pressure: 2.00 bar Injector depression: maximize (mbar)2 Reference Measurement: 10 seconds Cycle Time: 100 msec Trigger Conditions: Start 0.0 seconds after optical concentration ≥1% valid always Stop after 5.0 seconds optical concentration ≤1% or after 30 seconds real time Optical Concentration: Approximately range 3-12%
# Number of measurements: 2 (duplicate)
# The instrument is set up according to the manufacturer's recommendation and using the manufacturer provided software. The sample container is thoroughly mixed and tumbled prior to removing a portion of the sample to ensure that a representative sample is tested. Duplicate samples are prepared by using a spatula to transfer approximately 100 mg of a sample into the ASPIROS glass vials and cap the vials. The capped cials are placed into the feeder.
# [2] = in vivo; cited from earlier work
# [3] = metformin on its own, in the diabetic; cited from earlier work
# [4] = listed as Active substance Batch 1
# [5] = listed as Active substance Batch 2
compound,measurement,setting,value
1-chloro-4-(β-D-glucopyranos-1-yl)-2-[4-((S)-tetrahydrofuran-3-yloxy)-benzyl]-benzene [compound (I.9)],"X10 (10% value of the volume distribution, particle size)",[1]; [4],1.8 μm
same,"X50 (50% value, median, of the volume distribution, particle size)",[1]; [4],18.9 μm
same,"X90 (90% value of the volume distribution, particle size)",[1]; [4],45.3 μm
same,"X10 (10% value of the volume distribution, particle size)",[1]; [5],1.7 μm
same,"X50 (50% value, median, of the volume distribution, particle size)",[1]; [5],12.1 μm
same,"X90 (90% value of the volume distribution, particle size)",[1]; [5],25.9 μm
CC#CCn1c(N2CCC[C@@H](N)C2)nc2c1c(=O)n(Cc1nc(C)c3ccccc3n1)c(=O)n2C [linagliptin],route of excretion,[2],primarily excreted by bile and the gut
CN(C)C(=N)N=C(N)N [metformin],average improvement in the HbA1c value,[3],1.0-1.5%
